Data as given in ChEMBL document CHEMBL3870313, “Synthesis and structure-activity relationship study of tacrine-based pyrano[2,3-c]pyrazoles targeting AChE/BuChE and 15-LOX” (Eur J Med Chem, 2016).

What was measured:
Cholinesterase = Cholinesterase (Homo sapiens, UniProt P06276)
Description: Inhibition of human recombinant BChE using butyrylthiocholine iodide as substrate incubated for 5 mins followed by substrate addition measured for 1 min by Ellman's method

Acetylcholinesterase [1] = molecular target: T1, Acetylcholinesterase (Electrophorus electricus, UniProt O42275)
Description: Inhibition of electric eel AChE using acetylthiocholine iodide as substrate incubated for 5 mins followed by substrate addition measured for 1 min by Ellman's method

in vitro [2] = settings: human, HepG2 cells
Description: Cytotoxicity against human HepG2 cells assessed as cell viability at 25 uM after 24 hrs by MTT assay

in vitro [3] = settings: human, HepG2 cells; remark: listed apart in the source
Description: Cytotoxicity against human HepG2 cells assessed as cell viability at 5 uM after 24 hrs by MTT assay

in vitro [4] = settings: human, HepG2 cells; remark: listed apart in the source
Description: Cytotoxicity against human HepG2 cells assessed as cell viability at 100 uM after 24 hrs by MTT assay

Acetylcholinesterase [5] = molecular target: T1, Acetylcholinesterase; experiment: Mixed type inhibition of electric eel AChE using acetylthiocholine iodide as substrate incubated for 5 mins followed by substrate addition measured for 1 min by Lineweaver-Burk plot analysis
in vitro [6] = settings: human, HepG2 cells; remark: listed apart in the source
Description: Cytotoxicity against human HepG2 cells assessed as cell viability at 1 uM after 24 hrs by MTT assay

[7] = molecular target: Acetylcholinesterase (Electrophorus electricus) (UniProt O42275); experiment: Potency index, ratio of tacrine IC50 to compound IC50 for electric eel AChE
in vitro [8] = settings: human, HepG2 cells; remark: listed apart in the source
Description: Cytotoxicity against human HepG2 cells assessed as cell viability at 50 uM after 24 hrs by MTT assay

in vitro [9] = settings: human, HepG2 cells; remark: listed apart in the source
Description: Cytotoxicity against human HepG2 cells assessed as cell viability at 300 uM after 24 hrs by MTT assay

in vitro [10] = settings: human, HepG2 cells; remark: listed apart in the source
Description: Cytotoxicity against human HepG2 cells assessed as cell viability at 10 uM after 24 hrs by MTT assay

T1 sequence (O42275 whole entry): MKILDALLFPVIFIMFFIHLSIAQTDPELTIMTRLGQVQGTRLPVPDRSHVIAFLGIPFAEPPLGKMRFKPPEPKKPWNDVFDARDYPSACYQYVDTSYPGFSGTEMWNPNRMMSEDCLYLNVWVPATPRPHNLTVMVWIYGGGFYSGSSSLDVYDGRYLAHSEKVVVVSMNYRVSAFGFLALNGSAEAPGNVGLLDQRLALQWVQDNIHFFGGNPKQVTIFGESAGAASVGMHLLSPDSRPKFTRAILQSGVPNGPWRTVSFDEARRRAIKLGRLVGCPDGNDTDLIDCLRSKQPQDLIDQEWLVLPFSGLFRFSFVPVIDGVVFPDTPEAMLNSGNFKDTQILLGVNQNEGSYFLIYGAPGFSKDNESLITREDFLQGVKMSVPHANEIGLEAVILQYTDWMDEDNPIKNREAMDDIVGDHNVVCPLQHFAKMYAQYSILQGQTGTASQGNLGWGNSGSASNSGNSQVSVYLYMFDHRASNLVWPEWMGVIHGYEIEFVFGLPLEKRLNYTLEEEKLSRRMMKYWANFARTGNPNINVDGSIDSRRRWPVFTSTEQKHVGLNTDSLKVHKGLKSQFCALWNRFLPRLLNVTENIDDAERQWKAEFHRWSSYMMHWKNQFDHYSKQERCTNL
Chain of Cholinesterase (P06276 whole entry): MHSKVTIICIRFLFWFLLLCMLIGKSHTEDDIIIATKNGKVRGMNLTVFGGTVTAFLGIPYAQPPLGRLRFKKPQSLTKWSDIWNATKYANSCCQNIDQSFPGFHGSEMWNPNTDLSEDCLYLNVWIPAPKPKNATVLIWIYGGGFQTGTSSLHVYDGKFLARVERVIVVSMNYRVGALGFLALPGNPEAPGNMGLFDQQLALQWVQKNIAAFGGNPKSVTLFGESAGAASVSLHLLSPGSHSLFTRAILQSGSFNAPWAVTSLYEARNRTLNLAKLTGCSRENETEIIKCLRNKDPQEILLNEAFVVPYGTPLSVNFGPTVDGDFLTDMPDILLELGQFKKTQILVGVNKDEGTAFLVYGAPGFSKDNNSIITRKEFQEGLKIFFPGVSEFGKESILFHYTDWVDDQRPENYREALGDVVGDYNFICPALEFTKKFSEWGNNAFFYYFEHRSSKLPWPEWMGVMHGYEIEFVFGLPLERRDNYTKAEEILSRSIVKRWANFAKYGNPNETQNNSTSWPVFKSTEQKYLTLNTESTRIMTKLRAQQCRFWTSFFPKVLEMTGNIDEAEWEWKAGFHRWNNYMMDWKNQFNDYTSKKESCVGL
Chain of Acetylcholinesterase (Electrophorus electricus) (O42275 24-633 limits assumed): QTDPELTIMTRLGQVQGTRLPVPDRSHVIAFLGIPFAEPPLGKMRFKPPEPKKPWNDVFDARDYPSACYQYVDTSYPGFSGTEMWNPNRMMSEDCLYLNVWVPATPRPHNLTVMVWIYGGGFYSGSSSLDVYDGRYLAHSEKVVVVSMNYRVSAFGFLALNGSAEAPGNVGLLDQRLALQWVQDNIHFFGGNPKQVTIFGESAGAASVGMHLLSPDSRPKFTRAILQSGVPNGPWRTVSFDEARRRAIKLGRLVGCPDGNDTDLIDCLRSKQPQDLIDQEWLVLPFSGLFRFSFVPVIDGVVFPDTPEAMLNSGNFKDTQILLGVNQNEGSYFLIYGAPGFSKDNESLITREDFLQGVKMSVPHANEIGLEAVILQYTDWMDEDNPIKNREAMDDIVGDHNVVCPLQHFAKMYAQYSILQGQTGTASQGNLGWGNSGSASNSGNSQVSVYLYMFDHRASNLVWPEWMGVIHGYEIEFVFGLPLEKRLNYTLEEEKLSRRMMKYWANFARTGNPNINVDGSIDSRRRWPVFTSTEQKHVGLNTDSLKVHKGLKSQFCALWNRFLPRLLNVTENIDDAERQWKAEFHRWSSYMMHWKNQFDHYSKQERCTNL

Row | SMILES | IC50 (Cholinesterase) [nM] | IC50 (Acetylcholinesterase [1]) [nM] | other results
1 | CCCc1n[nH]c2c1C(c1ccccc1)c1c(nc3c(c1N)CCCCC3)O2 (stereo unspecified) | 43 | 650 | 
2 | CCCc1n[nH]c2c1C(c1ccc(C)cc1)c1c(nc3c(c1N)CSCC3)O2 (stereo unspecified) | 73 | 1030 | 
3 | Cc1ccc(C2c3c(-c4ccccc4)n[nH]c3Oc3cc4c(c(N)c32)CCCC4)cc1 (stereo unspecified) | 11 | 98 | 
4 | Nc1c2c(cc3c1C(c1ccc(Cl)cc1)c1c(-c4ccccc4)n[nH]c1O3)CCCC2 (stereo unspecified) | 21 | 260 | 
5 | Nc1c2c(cc3c1C(c1ccccc1)c1c(-c4ccccc4)n[nH]c1O3)CCCC2 (stereo unspecified) | 8 | 140 | 
6 | CCCc1n[nH]c2c1C(c1ccc([N+](=O)[O-])cc1)c1c(nc3c(c1N)CCCC3)O2 (stereo unspecified) | 29 | 744 | 
7 | Nc1c2c(cc3c1C(c1ccc(F)cc1)c1c(-c4ccccc4)n[nH]c1O3)CCCC2 (stereo unspecified) | 7 | 34 | viability at 24 h, 25 µM (in vitro [2]): 99.7%; viability at 24 h, 5 µM (in vitro [3]): 100%; viability at 24 h, 100 µM (in vitro [4]): 89.9%; Ki (Acetylcholinesterase [5]): 490 nM; viability at 24 h, 1 µM (in vitro [6]): 101%; Ratio IC50 [7]: 6; viability at 24 h, 50 µM (in vitro [8]): 98.4%; viability at 24 h, 300 µM (in vitro [9]): 73.4%; viability at 24 h, 10 µM (in vitro [10]): 100%
8 | COc1cc(C2c3c(-c4ccccc4)n[nH]c3Oc3nc4c(c(N)c32)CCCC4)cc(OC)c1OC (stereo unspecified) | 65 | 1030 | 
9 | CCCc1n[nH]c2c1C(c1ccc(OC)c(OC)c1)c1c(nc3c(c1N)CCCC3)O2 (stereo unspecified) | 365 | 1470 | 
10 | Nc1c2c(nc3c1C(c1ccccc1)c1c(-c4ccccc4)nn(-c4ccccc4)c1O3)CCCC2 (stereo unspecified) | > 200000 | > 200000 | 
11 | Nc1c2c(nc3c1C(c1ccccc1)c1c(-c4ccco4)n[nH]c1O3)CCCC2 (stereo unspecified) | 15 | 100 | 
12 | CCCc1n[nH]c2c1C(c1ccc(Cl)cc1)c1c(nc3c(c1N)CSCC3)O2 (stereo unspecified) | 15 | 300 | 
13 | CCCc1n[nH]c2c1C(c1ccc(Cl)cc1)c1c(nc3c(c1N)CCCCC3)O2 (stereo unspecified) | 75 | 1060 | 
14 | Nc1c2c(nc3c1C(c1ccccc1)c1c(-c4ccccc4)n[nH]c1O3)CCCCC2 (stereo unspecified) | 9 | 54 | 
15 | CCCc1n[nH]c2c1C(c1ccc(N(C)C)cc1)c1c(nc3c(c1N)CCCC3)O2 (stereo unspecified) | 24 | 347 | 
16 | CC(C)C1c2c(-c3ccccc3)n[nH]c2Oc2nc3c(c(N)c21)CCCC3 (stereo unspecified) | 570 | 15000 | 
17 | CCCc1n[nH]c2c1C(c1ccc(Cl)cc1)c1c(nc3c(c1N)CCCC3)O2 (stereo unspecified) | 10 | 200 | 
18 | CCCc1n[nH]c2c1C(c1cccc([N+](=O)[O-])c1)c1c(nc3c(c1N)CCCC3)O2 (stereo unspecified) | 12 | 423 | 
19 | CCCc1n[nH]c2c1C(c1ccc(C)cc1)c1c(nc3c(c1N)CCCC3)O2 (stereo unspecified) | 13 | 120 | 
20 | CCCc1n[nH]c2c1C(c1ccc(C#N)cc1)c1c(nc3c(c1N)CCCC3)O2 (stereo unspecified) | 37 | 954 | 
21 | CCCc1n[nH]c2c1C(c1cc(OC)c(OC)c(OC)c1)c1c(nc3c(c1N)CCCC3)O2 (stereo unspecified) | 42 | 900 | 
22 | Nc1c2c(nc3c1C(c1ccccc1)c1c(-c4ccco4)nn(-c4ccccc4)c1O3)CCCC2 (stereo unspecified) | 5 | 72 | viability at 24 h, 25 µM (in vitro [2]): 85%; viability at 24 h, 5 µM (in vitro [3]): 95.8%; viability at 24 h, 100 µM (in vitro [4]): 75.7%; viability at 24 h, 1 µM (in vitro [6]): 99.6%; viability at 24 h, 50 µM (in vitro [8]): 81.4%; viability at 24 h, 300 µM (in vitro [9]): 67.4%; viability at 24 h, 10 µM (in vitro [10]): 90.3%
23 | CCCc1n[nH]c2c1C(c1ccc(SC)cc1)c1c(nc3c(c1N)CCCC3)O2 (stereo unspecified) | 8 | 201 | 
24 | CCCc1n[nH]c2c1C(c1cccc(Br)c1)c1c(nc3c(c1N)CCCC3)O2 (stereo unspecified) | 15 | 472 | 
25 | CCCc1n[nH]c2c1C(c1ccccc1OC)c1c(nc3c(c1N)CCCC3)O2 (stereo unspecified) | 18 | 471 | 
26 | Nc1c2c(nc3c1C(c1ccc(Cl)cc1)c1c(-c4ccccc4)n[nH]c1O3)CCCCC2 (stereo unspecified) | 77 | 1920 | 
27 | COc1ccc(C2c3c(-c4ccccc4)n[nH]c3Oc3cc4c(c(N)c32)CCCC4)cc1 (stereo unspecified) | 7 | 81 | viability at 24 h, 25 µM (in vitro [2]): 99.7%; viability at 24 h, 5 µM (in vitro [3]): 99.4%; viability at 24 h, 100 µM (in vitro [4]): 85.6%; viability at 24 h, 1 µM (in vitro [6]): 99.1%; viability at 24 h, 50 µM (in vitro [8]): 98.2%; viability at 24 h, 300 µM (in vitro [9]): 71.3%; viability at 24 h, 10 µM (in vitro [10]): 99.7%
28 | Nc1c2c(nc3c1C(c1ccc(Cl)cc1)c1c(-c4ccccc4)n[nH]c1O3)CCSC2 (stereo unspecified) | 30 | 450 | 
29 | CCCc1n[nH]c2c1C(c1ccc(OC)cc1)c1c(nc3c(c1N)CCCC3)O2 (stereo unspecified) | 6 | 52 | 
